Assay results from ChEMBL document CHEMBL1201862, “PubChem BioAssay data set” (2004).
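The compound was tested at five concentrations on cells cultured in 96-well plates, with a 48-hour exposure period. GI50 marks 50% less growth.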 The source made the active and inactive calls. No stated cut-off is given here; in the data, active = GI50 up to about 1.1 µM and inactive = higher.

How the values were obtained:
Experiment in all cases: NCI tumour cell line growth inhibition, 48 h
SN12C = test system: SN12C
LOX IMVI = test system: LOX IMVI
HCT-116 = test system: HCT-116
OVCAR-4 = test system: OVCAR-4
NCI-H522 = test system: NCI-H522
OVCAR-3 = test system: OVCAR-3
786-0 = test system: 786-0
U-251 = test system: U-251
UACC-62 = test system: UACC-62
SK-OV-3 = test system: SK-OV-3
SW-620 = test system: SW-620
UO-31 = test system: UO-31
SK-MEL-2 = test system: SK-MEL-2
COLO 205 = test system: COLO 205
HL-60 = test system: HL-60
RPMI-8226 = test system: RPMI-8226

| Structure (SMILES) | GI50 (SN12C) | GI50 (LOX IMVI) | GI50 (HCT-116) | GI50 (OVCAR-4) | GI50 (NCI-H522) | GI50 (OVCAR-3) | GI50 (786-0) | GI50 (U-251) | GI50 (UACC-62) | GI50 (SK-OV-3) | GI50 (SW-620) | GI50 (UO-31) | GI50 (SK-MEL-2) | GI50 (COLO 205) | GI50 (HL-60) | GI50 (RPMI-8226) |
| --- | --- | --- | --- | --- | --- | --- | --- | --- | --- | --- | --- | --- | --- | --- | --- | --- |
| CN(C)c1snc2c1c(=O)n(C)c(=O)n2C | > 100 µM (inactive) | > 100 µM (inactive) | > 100 µM (inactive) | > 100 µM (inactive) | > 100 µM (inactive) | > 100 µM (inactive) | > 100 µM (inactive) | > 100 µM (inactive) | > 100 µM (inactive) | > 100 µM (inactive) | > 100 µM (inactive) | > 100 µM (inactive) | > 100 µM (inactive) | > 100 µM (inactive) | > 100 µM (inactive) | > 100 µM (inactive) |
| CCOC(=O)N1c2c(ccn2C)-c2ccn(C)c2N1C(=O)OCC | 15.8 µM (inactive) | 12.9 µM (inactive) | 14.8 µM (inactive) | > 10 µM (inactive) | 11.3 µM (inactive) | 14.1 µM (inactive) | 11.1 µM (inactive) |  | 16.7 µM (inactive) | 30.6 µM (inactive) | 15.2 µM (inactive) | 19.8 µM (inactive) | 21.4 µM (inactive) | 22.7 µM (inactive) | 5.09 µM (inactive) | 20.9 µM (inactive) |
| NC(=O)c1cc(C2OC(CO)C(O)C2O)nn1-c1ccc([N+](=O)[O-])cc1 (stereo not drawn) | > 100 µM (inactive) | > 100 µM (inactive) | > 100 µM (inactive) | > 100 µM (inactive) |  | > 100 µM (inactive) | > 10 µM (inactive) | > 100 µM (inactive) | > 100 µM (inactive) | > 100 µM (inactive) | 43.3 µM (inactive) | > 100 µM (inactive) | > 100 µM (inactive) | > 100 µM (inactive) | > 100 µM (inactive) | 88.9 µM (inactive) |
| N=CCCN(CCC=N)c1ccc(/C=C2\CN(NC(=O)c3ccc(Cl)cc3)C(c3ccccc3)=N2)cc1 | > 100 µM (inactive) | 75 µM (inactive) | > 100 µM (inactive) | > 100 µM (inactive) |  | > 100 µM (inactive) | 90.2 µM (inactive) | 25.8 µM (inactive) | > 100 µM (inactive) | > 100 µM (inactive) | 15.6 µM (inactive) | > 100 µM (inactive) | > 100 µM (inactive) | > 100 µM (inactive) | > 100 µM (inactive) | 26.4 µM (inactive) |
| CC(=O)C1=CCC2c3[nH]c4ccccc4c3CCN2C1 (stereo not drawn) | 68.4 µM (inactive) | 58.7 µM (inactive) | 45 µM (inactive) | 35.6 µM (inactive) | 24.7 µM (inactive) | 31.7 µM (inactive) | 35.1 µM (inactive) | 54.5 µM (inactive) |  | 21.6 µM (inactive) | > 100 µM (inactive) | > 100 µM (inactive) | 66.4 µM (inactive) | > 100 µM (inactive) | 45.3 µM (inactive) |  |
| CCOC(=O)C1C(c2ccccc2)=C(c2ccccc2)C(c2ccccc2)=C1c1ccccc1 | 50.7 µM (inactive) | 58.9 µM (inactive) | 20.8 µM (inactive) | 18.2 µM (inactive) | 49.8 µM (inactive) | 26.3 µM (inactive) | 21 µM (inactive) | 21.2 µM (inactive) | 19.3 µM (inactive) | 22.6 µM (inactive) | 81.5 µM (inactive) | 45.9 µM (inactive) | 26.9 µM (inactive) | > 100 µM (inactive) | 57.1 µM (inactive) | 19.6 µM (inactive) |
| CCN1C(=O)C/C(=C\C(C)=O)Nc2ccccc21 | 0.166 µM (active) | > 100 µM (inactive) | > 100 µM (inactive) | > 100 µM (inactive) | > 100 µM (inactive) | > 100 µM (inactive) | > 100 µM (inactive) | > 100 µM (inactive) | > 100 µM (inactive) | > 100 µM (inactive) | > 100 µM (inactive) | > 100 µM (inactive) | > 100 µM (inactive) | > 100 µM (inactive) |  |  |
| O=c1c2ccccc2oc2ccccc12.Oc1cccc2cccnc12 | 2.22 µM (inactive) | 1.49 µM (inactive) | 2.56 µM (inactive) | 5.89 µM (inactive) | 12.9 µM (inactive) | 5.53 µM (inactive) | 1.66 µM (inactive) |  | 3.76 µM (inactive) | < 0.01 µM (active) | 1.77 µM (inactive) | 2.31 µM (inactive) |  | 3.05 µM (inactive) | 0.67 µM (active) | 5.41 µM (inactive) |
| O=C(O)CN(c1ccccc1)S(=O)(=O)c1ccc(Cl)cc1 | > 100 µM (inactive) | > 100 µM (inactive) |  | > 100 µM (inactive) | > 100 µM (inactive) |  | > 100 µM (inactive) | > 100 µM (inactive) | > 100 µM (inactive) | > 100 µM (inactive) | > 100 µM (inactive) | > 100 µM (inactive) | > 100 µM (inactive) | > 100 µM (inactive) | > 100 µM (inactive) | > 100 µM (inactive) |
